Series [1] concerns TTR. The series can be described thus: TTR editing in primary human hepatocytes transfected with Spy Cas9 protein (RNP) loaded with dgRNAs (Table 8). The class given is cell-based. The conditions noted are these: dgRNA transfected with Spy Cas9 protein (RNP). Put shortly: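 Primary human hepatocytes were lipofected (RNAiMAX) with RNP of Spy Cas9 (10 nM) plus pre-annealed crRNA (10 nM) and trRNA (10 nM) and harvested 24, 48 or 72 h later. Target-site amplicons were sequenced on Illumina MiSeq and aligned to hg38; percent editing = reads with indels or substitutions over total reads.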

Series [2] has as its system TTR. The series can be described thus: TTR editing in primary cyno hepatocytes electroporated with Spy Cas9 protein and dgRNAs (Tables 10, 11). Type of series: cell-based, cynomolgus monkey. Here is the method:
Primary liver hepatocytes. Primary human liver hepatocytes (PHH) and primary cynomolgus liver hepatocytes (PCH) (Gibco) were cultured per the manufacturer's protocol (Invitrogen, protocol 11.28.2012). In brief, the cells were thawed and resuspended in hepatocyte thawing medium with supplements (Gibco, Cat. CM7000) followed by centrifugation at 100 g for 10 minutes for human and 80 g for 4 minutes for cyno. The supernatant was discarded and the pelleted cells resuspended in hepatocyte plating medium plus supplement pack (Invitrogen, Cat. A1217601 and CM3000). Cells were counted and plated on Bio-coat collagen I coated 96-well plates (ThermoFisher, Cat. 877272) at a density of 33,000 cells/well for human or 60,000 cells/well for cyno (or 65,000 cells/well when assaying effects on TTR protein, described further below). Plated cells were allowed to settle and adhere for 6 or 24 hours in a tissue culture incubator at 37° C. and 5% CO2 atmosphere. After incubation cells were checked for monolayer formation and media was replaced with hepatocyte culture medium with serum-free supplement pack (Invitrogen, Cat. A1217601 and CM4000).
[…] formation was performed prior to electroporation or transfection of Spy Cas9 protein loaded with guide RNAs (RNPs) onto cells. For dual guide (dgRNAs), individual crRNA and trRNA was pre-annealed by mixing equivalent amounts of reagent and incubating at 95° C. for 2 min and cooling to room temperature. Single guide (sgRNAs) were boiled at 95° C. for 2 min and cooling to room temperature. The boiled dgRNA or sgRNA was incubated with Spy Cas9 protein in Optimem for 10 minutes at room temperature to form a ribonucleoprotein (RNP) complex.
For RNP electroporation into primary human and cyno hepatocytes, the cells are thawed and resuspended in Lonza electroporation Primary Cell P3 buffer at a concentration of 2500 cells per μL for human hepatocytes and 3500 cells per μL for cyno hepatocytes. A volume of 20 μL of resuspended cells and 5 μL of RNP are mixed together per guide. 20 μL of the mixture is placed into a Lonza electroporation plate. The cells were electroporated using the Lonza nucleofector with the preset protocol EX-147. Post electroporation, the cells are transferred into a Biocoat plate containing pre-warmed maintenance media and placed in a tissue culture incubator at 37° C. and 5% CO2.
Transfected cells were harvested post-transfection at 24, 48, or 72 hours. The genomic DNA was extracted from each well of a 96-well plate using 50 μL/well BuccalAmp DNA Extraction solution (Epicentre, Cat. QE09050) per manufacturer's protocol. All DNA samples were subjected to PCR and subsequent NGS analyses, as described herein.
To quantitatively determine the efficiency of editing at the target location in the genome, sequencing was utilized to identify the presence of insertions and deletions introduced by gene editing.
Primers were designed around the target site within the gene of interest (e.g. TTR), and the genomic area of interest was amplified.
Additional PCR was performed per the manufacturer's protocols (Illumina) to add chemistry for sequencing. The amplicons were sequenced on an Illumina MiSeq instrument. The reads were aligned to a reference genome (e.g., the human reference genome (hg38), the cynomologus reference genome (mf5), the rat reference genome (rn6), or the mouse reference genome (mm10)) after eliminating those having low quality scores. The resulting files containing the reads were mapped to the reference genome (BAM files), where reads that overlapped the target region of interest were selected and the number of wild type reads versus the number of reads which contain an insertion, substitution, or deletion was calculated.
The editing percentage (e.g., the “editing efficiency” or “percent editing” or “indel frequency”) is defined as the total number of sequence reads with insertions/deletions (“indels”) or substitutions over the total number of sequence reads, including wild type. […]

For series [3], the system named is TTR. The series can be described thus: TTR editing in HepG2 cells transfected with Spy Cas9 mRNA and dgRNAs (Table 6). The conditions noted are these: HepG2 cells co-transfected with Spy Cas9 mRNA (SEQ ID NO:2) and dgRNAs. Type of series: cell-based, human. Put shortly: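 HepG2 cells were transfected sequentially by lipofection with Spy Cas9 mRNA (100 ng), then crRNA plus tracer RNA (25 nM each), and harvested at 24, 48 or 72 h. Editing was measured by amplicon NGS at the TTR target site as the fraction of reads with indels or substitutions.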

Series [4] concerns TTR. The series can be described thus: TTR editing in primary human hepatocytes electroporated with Spy Cas9 protein loaded with dgRNAs (Table 7). Type of series: cell-based. The settings on record: dgRNA electroporated with Spy Cas9 protein (RNP). In a few lines:
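Primary human or cynomolgus hepatocytes electroporated (Lonza P3 buffer, program EX-147) with Spy Cas9 RNP carrying pre-annealed crRNA/trRNA dual guides. Genomic DNA harvested at 24, 48 or 72 h; target amplicons sequenced by Illumina MiSeq. Percent editing = reads with indels or substitutions over total reads.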

Series [5] has as its system TTR. The series can be described thus: TTR editing in primary human hepatocytes transfected with Spy Cas9 mRNA and dgRNAs (Table 9). The conditions noted are these: dgRNA co-transfected with Spy Cas9 mRNA (SEQ ID NO:2). Type of series: cell-based. In a few lines:
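PHH sequentially lipofected with Spy Cas9 mRNA (100 ng), then crRNA plus tracrRNA (25 nM each) dual-guide lipoplex. Cells harvested 24, 48 or 72 h post-transfection; TTR target amplicons sequenced on Illumina MiSeq, editing given as percent reads with indels or substitutions over total reads.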

The subject of the next series is off-target genomic sites. The series can be described thus: Off-target oligo insertion based assay in HEK293_Cas9 cells, dgRNAs and sgRNAs (Tables 23, 24). Type of series: cell-based, human. The conditions noted are these: Table 23; TTR dgRNAs in HekCas9 cells, oligo insertion based assay. The protocol: An oligo insertion based assay (See, e.g., Tsai et al., Nature Biotechnology 33, 187-197; 2015) was used to determine potential off-target genomic sites cleaved by Cas9 targeting TTR. Forty-five dgRNAs from Table 1 (and two control guides with known off-target profiles) were screened in the HEK293 Cas9 cells. The human embryonic kidney adenocarcinoma cell line HEK293 constitutively expressing Spy Cas9 (“HEK293_Cas9”) was cultured in DMEM media supplemented with 10% fetal bovine serum and 500 μg/ml G418. Cells were plated at a density of 30,000 cells/well in a 96-well plate 24 hours prior to transfection. Cells were transfected with Lipofectamine RNAiMAX (ThermoFisher, Cat. 13778150) per the manufacturer's protocol. Cells were transfected with a lipoplex containing individual crRNA (15 nM), trRNA (15 nM), and donor oligo with (10 nM) Lipofectamine RNAiMAX (0.3 μL/well) and OptiMem. Cells were lysed 24 hours post transfection and genomic DNA was extracting using Zymo's Quick gDNA 96 Extraction kit (catalog #D3012) following the manufacturer's recommended protocol. The gDNA was quantified using the Qubit High Sensitivity dsDNA kit (Life Technologies). Libraries were prepared per the previously described method in Tsai et al, 2015 with minor modifications. Sequencing was performed on Illumina's MiSeq and HiSeq 2500. The assay identified potential off-target sites for some of the crRNAs which are plotted in FIG. 2.
Additionally, a subset of the guides was assessed for off-target potential as modified sgRNAs in the Hek_Cas9 cells via the oligo based insertion method described above. The off-target results were plotted in FIG. 4.

Where [6] appears, read: Table 10, primary cyno hepatocytes electroporated with Spy Cas9 protein (RNP) and dgRNAs.
Where [7] appears, read: primary cyno hepatocytes electroporated with Spy Cas9 protein (RNP) and cyno specific dgRNAs.

Turning to “UGUCUGUCUUCUCUCAUAGG (tested as dual guide RNA, chemistry not given here) [CR005307]”, the “Avg % Deletion” value is listed as 8.55% in the series on TTR [1]; 2.55% with TTR [2] (setting [6]); 14.33% in the series on TTR [3]; 3.00% in the series with TTR [4]; 9.30% in the series on TTR [5]. Besides, the “Avg % Edit” value with TTR [1] turned out to be 18.73%; in the series with TTR [2] (setting [6]), 4.56%; with TTR [3], 22.03%; in the series on TTR [4], 8.17%; with TTR [5], 12.90%. The “Avg % Insert” value was 10.18% with TTR [1]; 2.01% with TTR [2] (setting [6]); 7.70% in the series on TTR [3]; 5.20% in the series with TTR [4]; 3.67% in the series on TTR [5].

Consider “GGCCGUGCAUGUGUUCAGAA (tested as dual guide RNA, chemistry not given here) [CR005304]”, for which the “Avg % Deletion” value is 45.13% in the series with TTR [1], 54.75% in the series on TTR [3], 61.63% in the series on TTR [4] and 44.47% in the series on TTR [5]. In addition, the “Avg % Edit” value with TTR [1] was determined as 49.45%; with TTR [3], 62.82%; in the series with TTR [4] it was 67.00%; in the series with TTR [5], 45.27%. The “Avg % Insert” value in the series on TTR [1] is 4.32%; with TTR [3], 8.07%; with TTR [4], 5.53%; in the series with TTR [5] it was 0.83%. Also, the “# Sites (off-target integration sites detected)” value (shortened to “# Sites”) with off-target genomic sites is given as 0.

“AGCCGUGGUGGAAUAGGAGU (tested as dual guide RNA, chemistry not given here) [CR005299]”: the “Avg % Deletion” value came to 0.58% in the series with TTR [1]; 0.26% with TTR [2] (setting [6]); 2.30% in the series on TTR [3]; 0.35% in the series on TTR [4]; 0.60% with TTR [5]. Further, the “Avg % Edit” value in the series on TTR [1] was determined as 19.37%; in the series with TTR [2] (setting [6]) it was 13.48%; in the series on TTR [3] it was 38.61%; in the series on TTR [4], 8.65%; in the series on TTR [5] it was 9.43%. The “Avg % Insert” value is on record as 18.79% with TTR [1]; 13.23% in the series with TTR [2] (setting [6]); 36.32% in the series on TTR [3]; 8.30% with TTR [4]; 8.93% with TTR [5].

As for “UCCACUCAUUCUUGGCAGGA (tested as dual guide RNA, chemistry not given here) [CR005298]”, the “Avg % Deletion” value with TTR [1] is 10.95%; in the series with TTR [3], 21.36%; in the series with TTR [4] it was 17.57%; with TTR [5] it was 11.60%. Further, the “Avg % Edit” value is 32.07% in the series on TTR [1], 42.65% with TTR [3], 39.90% in the series with TTR [4] and 15.70% in the series with TTR [5]. For the same sequence, the “Avg % Insert” value worked out at 21.12% in the series on TTR [1], 21.29% in the series on TTR [3], 22.37% in the series with TTR [4] and 4.13% with TTR [5]. Further, in the series on off-target genomic sites, the “# Sites” value is recorded as 0.

For “UCACAGAAACACUCACCGUA (tested as dual guide RNA, chemistry not given here) [CR005300]”, the “Avg % Deletion” value in the series on TTR [1] came out at 3.61%; in the series with TTR [3] it was 11.15%; with TTR [4] it was 4.10%; with TTR [5], 3.97%. Further, the “Avg % Edit” value was 57.23% with TTR [1], 64.34% with TTR [3], 57.47% with TTR [4] and 31.53% in the series with TTR [5]. The “Avg % Insert” value with TTR [1] is 53.62%; with TTR [3] it was 53.20%; with TTR [4] it was 53.47%; in the series with TTR [5] it was 27.60%. The “# Sites” value in the series on off-target genomic sites came out at 0.

In the case of “UAUAGGAAAACCAGUGAGUC (tested as dual guide RNA, chemistry not given here) [CR005305]”, the “Avg % Deletion” value in the series on TTR [1] is 0.34%; with TTR [2] (setting [6]), 0.15%; with TTR [3] it was 1.21%; with TTR [4], 0.40%; in the series on TTR [5], 1.60%. The “Avg % Edit” value in the series on TTR [1] is recorded as 7.07%; with TTR [2] (setting [6]), 11.28%; with TTR [3], 13.51%; with TTR [4], 3.83%; in the series with TTR [5], 7.53%. The “Avg % Insert” value with TTR [1] is 6.73%; in the series on TTR [2] (setting [6]), 11.13%; in the series on TTR [3], 12.30%; in the series on TTR [4] it was 3.53%; in the series with TTR [5] it was 5.93%.

Consider “ACUUGUCUUCUCUAUACCCA (tested as dual guide RNA, chemistry not given here) [CR005370]”, for which, in the series on TTR [2] (setting [7]), the “Avg % Deletion” value was 62.93%, the “Avg % Edit” value is listed as 63.52% and the “Avg % Insert” value came out at 0.59%.

Values taken from patent US11795460B2, “Compositions and methods for TTR gene editing and treating ATTR amyloidosis” (Intellia Therapeutics, Inc., priority 2017, dated 2023).
